From article PMC11352273, “The Proapoptotic Action of Pyrrolidinedione–Thiazolidinone Hybrids towards Human Breast Carcinoma Cells Does Not Depend on Their Genotype” (Cancers, 2024) come the findings set out here.

“And” between values parts separate entries of the source, which are not always exact repeats. Equal values may be shown once.

Assay [1] has as its system MMP-9 in MDA-MB-231 cells. The assay can be described thus: MMP-9 ELISA in culture supernatants. The conditions noted are these: MDA-MB-231, 24 h, all examined doses. It counts as cell-based, human. Here is the method:
(§1) In order to determine the Beclin-1 concentration in the cell lysates, the SimpleStep ELISA (Abcam, Cambridge, UK) Kit was used. MMP-2, MMP-9, and ICAM-1 concentrations were measured in culture supernatants using high-sensitivity human SimpleStep ELISA kits (Abcam, Cambridge, UK) according to the manufacturer’s protocols. The LC3B ELISA kit (BT LAB, Shanghai, China) was used to check the protein concentration in cell lysates from analyzed breast cancer cells. The procedure for preparing the samples was shown previously.

Assay [2] has as its system MCF-7 cells. The assay can be described thus: Clonogenic assay. Particulars: for IC50: Homo sapiens, MCF7, MCF-7, 72 h exposure, 14 days culture, read-out: IC50 (M ± SD) in clonogenic assay. The assay is classed as cell-based, human. The procedure: (§2) The clonogenic assay was carried out utilizing the previously published methodology. The MCF-7, MDA-MB-231, HCC1954, and MCF-10A cells (500 cells/2 mL) were seeded in a 12-well plate overnight. Afterward, studied derivatives or doxorubicin (1, 2.5, 5, 10, and 50 µM) were added to cells. The media was changed after 72 h to a compound-free one, and the cells were cultured for the following 14 days. Then, the cells were washed, fixed, and stained with 0.1% crystal violet. After washing, the plates were dried at room temperature. The colonies were recorded by ImageJ software (Version 1.30). The value of colonies in control (non-treated cells) was accepted as 100%. The effect of compounds on the colony-forming ability of cells was expressed as the percentage of colonies compared to the control.

Assay [3] concerns MDA-MB-231 cells. The assay can be described thus: Clonogenic assay. The conditions noted are these: for IC50: Homo sapiens, MDA-MB-231, 72 h exposure, 14 days culture, read-out: IC50 (M ± SD) in clonogenic assay. It counts as cell-based, human. The procedure: as §2
Assay [4] relates to HCC1954 cells. The assay can be described thus: Clonogenic assay. The assay is classed as cell-based, human. Particulars: for IC50: Homo sapiens, HCC1954, 72 h exposure, 14 days culture, read-out: IC50 (M ± SD) in clonogenic assay. Here is the method:
as §2

Another assay deals with MMP-2 in MCF-7 cells. The assay can be described thus: MMP-2 ELISA in culture supernatants. The assay is classed as cell-based, human. The conditions noted are these: MCF-7, 24 h, control 610.57 pg/mL. Here is the method:
as §1
(ELISA stands for enzyme-linked immunosorbent assay.)

Assay [5] deals with MMP-2 in MDA-MB-231 cells. The assay can be described thus: MMP-2 ELISA in culture supernatants. The assay is classed as cell-based, human. The conditions noted are these: MDA-MB-231, 24 h, 2 μM; control 1055.21 pg/mL. Here is the method: as §1
Assay [6] has as its system MCF-7 cells. Nature of the assay: [3H]-thymidine incorporation assay. It counts as cell-based. Particulars: Homo sapiens, MCF7; MCF-7, 24 h; read-out: IC50 (M ± SD) in [3H]-thymidine assay (DNA synthesis). Here is the method:
(§3) Following a 24 h cell treatment, the incorporation of [^3H]-thymidine into the DNA of the breast tumor and normal cells was used to measure the antiproliferative activity of Les-6287. The MCF-7, MDA-MB-231, HCC1954, and MCF-10A cells were seeded into six-well plates (density 3 × 10^5 cells/well) and cultured for 24 h. Then, they were incubated under the same conditions for the next 24 h with a growth medium containing the tested compounds and reference drug (doxorubicin) at different concentrations (1, 2.5, 5, 10, 50 µM). After 24 h, the medium was changed to a fresh one without FBS. A total of 0.5 µCi of tritium-labeled thymidine (specific activity: 7 Ci/mmol) was added to cells for 4 h. The cells were washed with 1 mL of 0.05 M Tris-HCl buffer pH 7.4 containing 0.11 M NaCl and 1 mL of 5% trichloroacetic acid (TCA). Each well was filled with 1 mL of a 0.1 M NaOH solution containing 1% SDS to complete cell lysis. After 5 min, the acquired cell lysates were put into scintillation vials and pre-filled with two milliliters of scintillation liquid. The Scintillation Counter 1900 TR, TRI-CARB (Packard, Perkin Elmer, Inc., San Jose, CA, USA) was used to record the results. The effect of compounds on DNA synthesis was expressed as % of the control (non-treated cells).
For orientation: Dividing cells build labelled thymidine or BrdU into new DNA.

For assay [7], the system named is MDA-MB-231 cells. Nature of the assay: [3H]-thymidine incorporation assay. The assay is classed as cell-based. The conditions noted are these: Homo sapiens; MDA-MB-231, 24 h; read-out: IC50 (M ± SD) in [3H]-thymidine assay (DNA synthesis). Here is the method: as §3
In assay [8] the test system is HCC1954 cells. Nature of the assay: [3H]-thymidine incorporation assay. It counts as cell-based. Particulars: Homo sapiens; HCC1954, 24 h; read-out: IC50 (M ± SD) in [3H]-thymidine assay (DNA synthesis). The procedure:
as §3

For assay [9], the system named is MCF-10A cells. Nature of the assay: [3H]-thymidine incorporation assay. It counts as cell-based. Particulars: Homo sapiens, 24 h, read-out: IC50 (M ± SD) in [3H]-thymidine assay (DNA synthesis). Here is the method:
as §3

In assay [10] the test system is MCF-10A cells. The assay can be described thus: Clonogenic assay. The assay is classed as cell-based. Particulars: Homo sapiens; for IC50: 72 h exposure, 14 days culture, read-out: IC50 (M ± SD) in clonogenic assay. The procedure:
as §2

Assay [11] relates to MCF-7 cells. The assay can be described thus: Annexin V/PI flow cytometry of apoptosis. The assay is classed as cell-based, human. The conditions noted are these: MCF-7, 24 h. Here is the method:
(§4) Cells were washed twice with cold PBS and resuspended in the Binding Buffer from the Kit. The FITC Annexin V and propidium iodide (PI) were added to 100 µL of cell suspension and incubated for 15 min at room temperature, protected from light. Then, 300 µL of Binding Buffer was added, and samples were analyzed using a flow cytometer. A total of 10,000 events were measured. The FACSDiva software (Version 6.1.3, BD Biosciences Systems, San Jose, CA, USA) was applied to analyze all flow cytometry data. The BD Cytometer Setup and Tracking Beads (BD Biosciences, San Diego, CA, USA) were used for the calibration of the flow cytometer.
(In flow cytometry, cells or beads pass a laser one at a time.)

The test system of assay [12] is MDA-MB-231 cells. The assay can be described thus: Annexin V/PI flow cytometry of apoptosis. It counts as cell-based, human. Particulars: MDA-MB-231, 24 h. Here is the method:
as §4

In the case of `COc1cccc2c1C(=O)c1c(O)c3c(c(O)c1C2=O)C[C@@](O)(C(=O)CO)C[C@@H]3O[C@H]1C[C@H](N)[C@H](O)[C@H](C)O1` [Dox, doxorubicin, reference compound], in assay [1], the “MMP-9 concentration versus control” value is reported as “decreased”. Besides, the IC50 came out at 420 ± 80 nM with MCF-7 cells [2]; 420 ± 110 nM in the assay on MDA-MB-231 cells [3]; 430 ± 110 nM in the assay with HCC1954 cells [4]; 660 ± 130 nM in the assay with MCF-7 cells [6]; 630 ± 110 nM with MDA-MB-231 cells [7]; 1070 ± 40 nM in the assay on HCC1954 cells [8]. Moreover, the IC50 in the assay on MCF-10A cells [9] stood at 3190 ± 430 nM; in the assay on MCF-10A cells [10], 470 ± 110 nM. The entries for the “concentration of MMP-2” value (with MMP-2 in MCF-7 cells (2 μM); in assay [5]) were 425.40 pg/mL and 470.57 pg/mL, respectively. Further, the early apoptotic cells in the assay on MCF-7 cells [11] (1 µM) is 0.55 ± 0.07%; with MDA-MB-231 cells [12] (1 µM) it was 0.10 ± 0.01%. Also, the late apoptotic cells amounted to 60.60 ± 7.35% with MCF-7 cells [11] (1 µM) and 42.20 ± 17.25% in the assay on MDA-MB-231 cells [12] (1 µM). The necrotic cells is 31.75 ± 5.59% and 31.75% in the assay on MCF-7 cells [11] (1 µM); 51.25 ± 3.36% and 51.25% in the assay on MDA-MB-231 cells [12] (1 µM).

For `O=C1CC(N2C(=O)C(=CC(Cl)=Cc3ccc([N+](=O)[O-])cc3)SC2=S)C(=O)N1c1ccc(O)cc1` (stereo not shown) [Les-6287, 1-(4-hydroxyphenyl)-3-[5-[2-chloro-3-(4-nitrophenyl)prop-2-enylidene]-4-oxo-2-thioxothiazolidine-3-yl]pyrrolidine-2,5-dione], the “MMP-9 concentration versus control” value in [1] is recorded as “decreased”. The IC50 turned out to be 420 ± 80 nM in the assay on MCF-7 cells [2]; 420 ± 110 nM with MDA-MB-231 cells [3]; 430 ± 110 nM in the assay on HCC1954 cells [4]; 2370 ± 20 nM in the assay on MCF-7 cells [6]; 2320 ± 40 nM with MDA-MB-231 cells [7]; 3670 ± 90 nM in the assay on HCC1954 cells [8]. Moreover, the IC50 is 43500 ± 1160 nM in the assay with MCF-10A cells [9] and over 50000 nM in the assay with MCF-10A cells [10]. For the same molecule, the formation of colonies result with MCF-7 cells [2] (MCF-7, compound at 1 µM) is on record as “totally inhibited”; with MDA-MB-231 cells [3] (MDA-MB-231, compound at 1 µM), “totally inhibited”; in the assay with HCC1954 cells [4] (HCC1954, compound at 1 µM) it was “totally inhibited”. Also, the “concentration of MMP-2” value worked out at 395.91 pg/mL in the assay on MMP-2 in MCF-7 cells (compound concentration not stated (most significant decrease)) and 711.74 pg/mL in assay [5]. Further, in the assay on MCF-10A cells [10] (compound at 50 µM, read-out: inhibition of the formation of colonies), the inhibition at 50 µM was 32.6%. In addition, the early apoptotic cells in the assay on MCF-7 cells [11] (1 µM) was 3.85 ± 1.20%; in the assay with MCF-7 cells [11] (1.5 µM) it was 2.30 ± 0.42%; in the assay with MDA-MB-231 cells [12] (1 µM) it was 2.10 ± 0.14%; in the assay on MDA-MB-231 cells [12] (1.5 µM), 5.65 ± 0.92%. Further, the late apoptotic cells came out at 21.60 ± 0.78% with MCF-7 cells [11] (1 µM), 29.35 ± 6.43% in the assay on MCF-7 cells [11] (1.5 µM), 5.10 ± 0.49% in the assay on MDA-MB-231 cells [12] (1 µM) and 29.00 ± 9.76% with MDA-MB-231 cells [12] (1.5 µM). The necrotic cells was 0.50 ± 0.24% in the assay on MCF-7 cells [11] (1 µM), 0.30 ± 0.11% in the assay with MCF-7 cells [11] (1.5 µM), 0.90 ± 0.02% in the assay with MDA-MB-231 cells [12] (1 µM) and 4.50 ± 1.82% in the assay with MDA-MB-231 cells [12] (1.5 µM). Also, the “necrotic cells, range” value in the assay on MCF-7 cells [11] (1 and 1.5 µM) is recorded as 0.30–0.50%; in the assay on MDA-MB-231 cells [12] (1 and 1.5 µM), 0.90–4.50%.

In general, IC50 refers to the midpoint of a concentration-inhibition curve. What is called inhibition is the change of the read-out against control, counted positive when it falls.
